Reference: publication PMC12993615 (The journal of pain, 2024)

What was measured:
[1] = test system: oxaliplatin-induced mechanical allodynia; assay: 7-day treatment of established OIPN, paw withdrawal threshold; format: in vivo, male Sprague Dawley rats; conditions: 25 mg/kg BID PO 7 days, across Days 7 and 14, P < .05
Method: Male Sprague Dawley rats (150–210 g) were housed in groups of 4 in intra-ventilated Perspex home cages. Humidity, temperature (21 ± 1 °C), and lighting (light-dark cycle of 12:12 hours) were controlled and maintained in the home cages, with food and water available ad libitum. Rats acclimatised to the home cages for at least 1 week. All experiments were carried out according to the Animals (Scientific Procedures) Act, 1986 (U.K. Government Home Office). The study was performed under the Home Office project licence number PP0847012. OIPN was established with a single dose of OXA (10 mg/kg, IP).
(§1) Body weight was monitored throughout the study, and terminal plasma and whole brain samples were taken for bioanalysis.
Tactile allodynia (primary outcome measure) was assessed using paw withdrawal threshold (PWT), a measure of pain sensitivity. PWT was evaluated using calibrated von-Frey monofilaments (Touch-Test Sensory Evaluator; Scientific Marketing Associates) applied to the plantar surface of the left hind paw. PWT was determined by increasing and decreasing stimulus intensity and estimated using Dixon’s up-down method.[38],[39]
To acquire baseline readings, pain behaviour was assessed on 3 consecutive days (Days −3, −2, −1). […] NPB expressed as a percentage change from HBL was calculated as follows (HBL-NPB)/HBL*100. […]

FABP7 = FABP7 (Homo sapiens, UniProt O15540); assay: Fluorescence displacement binding assay (ANS probe)
Sequence of FABP7 (O15540 whole entry, species assumed): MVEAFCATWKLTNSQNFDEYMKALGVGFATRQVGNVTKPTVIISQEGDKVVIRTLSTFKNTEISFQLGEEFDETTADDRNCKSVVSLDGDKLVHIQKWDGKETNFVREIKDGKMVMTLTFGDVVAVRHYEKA
Method: (§2) Purified FABPs were incubated with 11-(dansylamino)undecanoic acid (DAUDA) (FABP3, FABP5) or 8-anilino-1-naphthalenesulfonic acid (ANS) (FABP7) in the presence or absence of FABP inhibitors (.01–200 μM) in the binding assay buffer. FABP4 binding was assessed using a commercially available kit (Cayman Chemical, Ann Arbor). In all cases, arachidonic acid (10 μM) was included to account for maximal probe displacement. Loss of fluorescence intensity was monitored with an F5 Filtermax Multi-Mode Microplate Reader (Molecular Devices, Sunnyvale) using the following excitation and emission wavelengths (DAUDA: ex./em.= 360/535 nm; ANS: ex./em. = 360/465 nm). Following background subtraction, the fluorescence intensity values were normalised and analyzed via a one-site binding model using the GraphPadPrism (version 9.2). Ki values were determined using the following equation: Ki= IC50/(1 + ([Probe]/Kd).

[2] = Terminal plasma levels, OIPN prevention study; format: in vivo, male Sprague Dawley rats
Excerpt: (§3) Pain measurements were made on Days 5/6 (when neuropathy has normally developed) and at the end of the study. […] Terminal plasma samples were taken for bioanalysis and proteomics (Somalogic). Brain regions involved in pain processing, that is, prefrontal cortex (PFC), periaqueductal grey (PAG), whole spinal cords (SC), and L4-L6 dorsal root ganglia, were collected for lipidomic and genomic (Genewiz, China) analyses.

[3] = Terminal plasma and brain concentrations, OIPN treatment study; format: in vivo; conditions: after 7 days dosing 25 mg/kg BID
Excerpt: as §1

[4] = Prevention of OIPN, body weight; format: in vivo, male Sprague Dawley rats; conditions: 10 mg/kg BID, P < .05
Excerpt: as §3

[5] = test system: dorsal root ganglion lipids; assay: Lipidomic analysis of terminal tissues, OIPN prevention study; format: in vivo, male Sprague Dawley rats; conditions: 25 mg/kg BID, versus vehicle, P = .03
Method: Pain measurements were made on Days 5/6 (when neuropathy has normally developed) and at the end of the study. […] Terminal plasma samples were taken for bioanalysis and proteomics (Somalogic). Brain regions involved in pain processing, that is, prefrontal cortex (PFC), periaqueductal grey (PAG), whole spinal cords (SC), and L4-L6 dorsal root ganglia, were collected for lipidomic and genomic (Genewiz, China) analyses. Lipid extraction from tissues was performed as previously described.[40] Samples were flash frozen in liquid nitrogen, weighed and transferred to a centrifuge tube with HPLC-grade methanol (Thermo Fisher Scientific, Fair Lawn, NJ). Tubes were spiked with 500 picomoles d8AEA (Cayman Chemical, Ann Arbor, MI). Samples were left on ice for 2 hours, homogenised and centrifuged at 19,000 g for 20 minutes at 20°C. […] Elution samples were then analysed by HPLC MS/MS as previously described.[40] 20 μL samples were run on an Agilent XDB-C18 reversed-phase analytical column and analysed using an Applied Biosystems API 3,000 triple quadrupole mass spectrometer with electrospray ionisation (Foster City, CA). […] Concentrations in mols/gram were adjusted according to extraction efficiency, as determined by d8AEA recovery. For each individual lipid species, samples were unblinded, fold-change compared to the vehicle was calculated and significance calculated by t-test (P < .05 and P < .1) in R.

FABP4 = biological target: T1, FABP4 (Homo sapiens, UniProt P15090); assay: FABP4 binding, commercially available kit (Cayman Chemical); conditions: commercial kit
T1 construct: purchased Cayman Chemical
T1 sequence (P15090 whole entry, species assumed): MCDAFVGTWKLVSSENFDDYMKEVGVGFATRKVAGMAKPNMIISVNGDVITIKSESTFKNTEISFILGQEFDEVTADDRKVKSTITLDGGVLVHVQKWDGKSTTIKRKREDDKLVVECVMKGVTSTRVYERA
Method: as §2

COc1ccccc1[C@@H]1[C@H](C(=O)O)[C@@H](c2ccccc2OC)[C@H]1C(=O)OC1Cc2ccccc2C1 [ART26.12, (+)–3-Indan-2-yloxycarbonyl-2,4-bis(2-methoxyphenyl)cyclobutanecarboxylic acid]
PWT scores versus vehicle [1]: significantly higher PWT scores than vehicle | Ki (FABP7): 19 ± 1.81 µM | mean plasma levels on Day 15 ([2]; 10 mg/kg BID): 4.49 ± .99 µM | mean plasma levels on Day 15 ([2]; 25 mg/kg BID): 7.45 ± 1.58 µM | average total plasma concentration [3]: 6.5 ± .6 µM | total brain concentration [3]: .15 ± .02 µM | body weight on Day 5 versus Day 0 [4]: significantly higher body weight than Day 0 | increase of N-docosahexaenoyl proline in DRG [5]: 9 fold | Ki (FABP4): > 100 µM
